Measurements reported in ChEMBL document CHEMBL4811264, “Design and synthesis of novel diosgenin-triazole hybrids targeting inflammation as potential neuroprotective agents” (Bioorg Med Chem Lett, 2021).

Assays:
RAW264.7 [1] = assay: Antiinflammatory activity in mouse RAW264.7 cells assessed as inhibition of LPS-induced NO production at 10 uM relative to control; type: functional
SH-SY5Y [2] = assay: Neuroprotective activity against oxygen glucose-deprivation induced toxicity in human SH-SY5Y cells at 10 uM relative to control; type: functional
RAW264.7 [3] = assay: Cytotoxicity against mouse RAW264.7 cells assessed as decrease in cell viability by MTT assay; type: cell-based
SH-SY5Y [4] = assay: Neuroprotective activity against oxygen glucose-deprivation induced toxicity in human SH-SY5Y cells at […] relative to control; type: functional

Row | Structure (SMILES) | inhibition at 10 µM (RAW264.7 [1]) [%] | Activity (SH-SY5Y [2]) [%] | Activity (RAW264.7 [3]) | Activity (SH-SY5Y [4]) [%]
1 | C[C@@H]1CC[C@@]2(OC1)O[C@H]1C[C@H]3[C@@H]4CCc5cc(OCc6cn(Cc7ccc(C(F)(F)F)cc7)nn6)ccc5[C@H]4CC[C@]3(C)[C@H]1[C@@H]2C | 9.5 | 66.4 | – | –
2 | C[C@@H]1CC[C@@]2(OC1)O[C@H]1C[C@H]3[C@@H]4CCc5cc(OCc6cn(Cc7ccc(F)cc7)nn6)ccc5[C@H]4CC[C@]3(C)[C@H]1[C@@H]2C | 19.7 | 50.7 | – | –
3 | C[C@@H]1CC[C@@]2(OC1)O[C@H]1C[C@H]3[C@@H]4CCc5cc(OCc6cn(-c7ccccc7)nn6)ccc5[C@H]4CC[C@]3(C)[C@H]1[C@@H]2C | – | 12.1 | – | –
4 | C[C@@H]1CC[C@@]2(OC1)O[C@H]1C[C@H]3[C@@H]4CCc5cc(OCc6cn(Cc7cccc(F)c7)nn6)ccc5[C@H]4CC[C@]3(C)[C@H]1[C@@H]2C | 30.6 | 51.6 | – | –
5 | C[C@@H]1CC[C@@]2(OC1)O[C@H]1C[C@H]3[C@@H]4CCc5cc(OCc6cn(Cc7ccccc7F)nn6)ccc5[C@H]4CC[C@]3(C)[C@H]1[C@@H]2C | 14.2 | 12.1 | – | –
6 | C[C@@H]1CC[C@@]2(OC1)O[C@H]1C[C@H]3[C@@H]4CCc5cc(OCc6cn(Cc7ccc(C#N)cc7)nn6)ccc5[C@H]4CC[C@]3(C)[C@H]1[C@@H]2C | 11.9 | 57.6 | – | –
7 | COc1ccc(Cn2cc(COc3ccc4c(c3)CC[C@@H]3[C@@H]4CC[C@]4(C)[C@@H]5[C@H](C[C@@H]34)O[C@]3(CC[C@@H](C)CO3)[C@H]5C)nn2)cc1 | 40.4 | 73.9 | – | –
8 | C[C@@H]1CC[C@@]2(OC1)O[C@H]1C[C@H]3[C@@H]4CCc5cc(OCc6cn(Cc7cc(F)c(F)cc7F)nn6)ccc5[C@H]4CC[C@]3(C)[C@H]1[C@@H]2C | – | 16.5 | – | –
9 | C[C@@H]1CC[C@@]2(OC1)O[C@H]1C[C@H]3[C@@H]4CCc5cc(OCc6cn(-c7ccccc7C#N)nn6)ccc5[C@H]4CC[C@]3(C)[C@H]1[C@@H]2C | – | 81.2 | Toxic | –
10 | COc1ccc2c(c1)c(CC(=O)O)c(C)n2C(=O)c1ccc(Cl)cc1 [INDOMETHACIN] | 34.9 | – | – | –
11 | CCCn1cc(COc2ccc3c(c2)CC[C@@H]2[C@@H]3CC[C@]3(C)[C@@H]4[C@H](C[C@@H]23)O[C@]2(CC[C@@H](C)CO2)[C@H]4C)nn1 | – | 73.9 | – | –
12 | COc1ccc(-n2cc(COc3ccc4c(c3)CC[C@@H]3[C@@H]4CC[C@]4(C)[C@@H]5[C@H](C[C@@H]34)O[C@]3(CC[C@@H](C)CO3)[C@H]5C)nn2)cc1 | 9.9 | 40.1 | – | –
13 | Cc1ccc(Cn2cc(COc3ccc4c(c3)CC[C@@H]3[C@@H]4CC[C@]4(C)[C@@H]5[C@H](C[C@@H]34)O[C@]3(CC[C@@H](C)CO3)[C@H]5C)nn2)cc1 | 35.6 | 34.1 | – | –
14 | CC(=O)N[C@@H](CS)C(=O)O [ACETYLCYSTEINE] | – | – | – | 84.3
15 | C[C@@H]1CC[C@@]2(OC1)O[C@H]1C[C@H]3[C@@H]4CC=C5C[C@@H](O)CC[C@]5(C)[C@H]4CC[C@]3(C)[C@H]1[C@@H]2C [DISOGENIN] | 5.9 | 3.5 | – | –
16 | Cc1ccc(-n2cc(COc3ccc4c(c3)CC[C@@H]3[C@@H]4CC[C@]4(C)[C@@H]5[C@H](C[C@@H]34)O[C@]3(CC[C@@H](C)CO3)[C@H]5C)nn2)cc1 | – | 3.3 | – | –
17 | C[C@@H]1CC[C@@]2(OC1)O[C@H]1C[C@H]3[C@@H]4CCc5cc(OCc6cn(-c7cc(F)cc(F)c7)nn6)ccc5[C@H]4CC[C@]3(C)[C@H]1[C@@H]2C | – | 71.4 | – | –
18 | C[C@@H]1CC[C@@]2(OC1)O[C@H]1C[C@H]3[C@@H]4CCc5cc(OCc6cn(Cc7ccccc7)nn6)ccc5[C@H]4CC[C@]3(C)[C@H]1[C@@H]2C | 23.5 | 35.5 | – | –
